Activity calls are given as the source filed them. The calls are words filed in the database; no cut-off is given here.
Tests used:
[1] = target: T1, Neuronal acetylcholine receptor subunit alpha-7 (Homo sapiens, UniProt P36544); experiment: Antagonist activity at human alpha7 nAChR expressed in Xenopus laevis oocytes assessed as inhibition of Ach-induced current at 100 uM measured at holding potential of -90 mV by two electrode voltage-clamp assay relative to control; type: cell-based; conditions: Oocyte
T1 sequence (P36544 whole entry): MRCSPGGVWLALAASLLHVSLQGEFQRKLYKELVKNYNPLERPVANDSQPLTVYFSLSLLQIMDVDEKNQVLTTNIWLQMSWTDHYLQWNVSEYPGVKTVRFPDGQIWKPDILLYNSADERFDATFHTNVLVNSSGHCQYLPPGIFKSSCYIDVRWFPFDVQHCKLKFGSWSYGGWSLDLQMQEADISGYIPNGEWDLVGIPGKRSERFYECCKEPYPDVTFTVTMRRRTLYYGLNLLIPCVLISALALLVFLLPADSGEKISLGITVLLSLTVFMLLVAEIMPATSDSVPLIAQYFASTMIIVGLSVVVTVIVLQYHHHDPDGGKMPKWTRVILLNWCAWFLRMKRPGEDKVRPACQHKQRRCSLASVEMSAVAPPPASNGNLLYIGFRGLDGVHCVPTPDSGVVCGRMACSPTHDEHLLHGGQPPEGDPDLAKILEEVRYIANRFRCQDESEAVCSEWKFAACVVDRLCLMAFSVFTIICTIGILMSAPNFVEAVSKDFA

[2] = target: T1, Neuronal acetylcholine receptor subunit alpha-7; experiment: Antagonist activity at human alpha7 nAChR expressed in Xenopus laevis oocytes assessed as inhibition of Ach-induced current at 30 uM measured at holding potential of -90 mV by two electrode voltage-clamp assay relative to control; type: cell-based; conditions: Oocyte
[3] = target: T1, Neuronal acetylcholine receptor subunit alpha-7; experiment: Antagonist activity at human alpha7 nAChR expressed in Xenopus laevis oocytes assessed as inhibition of Ach-induced current measured at holding potential of -90 mV by two electrode voltage-clamp assay; type: cell-based, Oocyte
[4] = target: T2, Neuronal acetylcholine receptor; alpha3/beta4 (Rattus norvegicus) (UniProt P04757+P12392); experiment: Antagonist activity at rat alpha3beta4 nAChR expressed in Xenopus laevis oocytes assessed as effect on nAChR current measured at holding potential of -90 mV by two electrode voltage-clamp assay; type: cell-based; conditions: Oocyte, dose 10.0 µM
[5] = Selectivity index, ratio of IC50 for rat alpha4beta2 nAChR expressed in Xenopus laevis oocytes to IC50 for human alpha7 nAChR expressed in Xenopus laevis oocytes; type: cell-based
[6] = target: Neuronal acetylcholine receptor; alpha4/beta2 (Rattus norvegicus, UniProt P09483+P12390); experiment: Antagonist activity at rat alpha4beta2 nAChR expressed in Xenopus laevis oocytes assessed as inhibition of Ach-induced current measured at holding potential of -90 mV by two electrode voltage-clamp assay; type: cell-based, Oocyte
Neuronal acetylcholine receptor; alpha4/beta2, sequence (P09483 whole entry): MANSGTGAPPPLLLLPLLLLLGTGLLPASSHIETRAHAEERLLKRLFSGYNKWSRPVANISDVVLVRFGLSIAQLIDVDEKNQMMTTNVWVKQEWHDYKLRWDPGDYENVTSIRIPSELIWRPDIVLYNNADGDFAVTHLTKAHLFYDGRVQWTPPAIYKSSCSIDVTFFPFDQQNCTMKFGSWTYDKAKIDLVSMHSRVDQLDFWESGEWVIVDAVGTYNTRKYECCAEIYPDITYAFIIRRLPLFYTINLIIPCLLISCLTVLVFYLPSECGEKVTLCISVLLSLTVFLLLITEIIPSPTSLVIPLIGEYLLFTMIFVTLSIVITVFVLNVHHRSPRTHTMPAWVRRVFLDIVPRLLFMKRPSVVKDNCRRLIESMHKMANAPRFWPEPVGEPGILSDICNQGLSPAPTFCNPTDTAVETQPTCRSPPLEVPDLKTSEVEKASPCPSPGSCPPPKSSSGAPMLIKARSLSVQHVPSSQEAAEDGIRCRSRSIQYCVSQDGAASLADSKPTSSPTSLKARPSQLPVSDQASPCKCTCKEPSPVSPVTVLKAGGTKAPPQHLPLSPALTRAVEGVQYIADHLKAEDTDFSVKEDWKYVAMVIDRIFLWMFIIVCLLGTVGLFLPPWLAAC
Neuronal acetylcholine receptor; alpha4/beta2, sequence (P12390 whole entry): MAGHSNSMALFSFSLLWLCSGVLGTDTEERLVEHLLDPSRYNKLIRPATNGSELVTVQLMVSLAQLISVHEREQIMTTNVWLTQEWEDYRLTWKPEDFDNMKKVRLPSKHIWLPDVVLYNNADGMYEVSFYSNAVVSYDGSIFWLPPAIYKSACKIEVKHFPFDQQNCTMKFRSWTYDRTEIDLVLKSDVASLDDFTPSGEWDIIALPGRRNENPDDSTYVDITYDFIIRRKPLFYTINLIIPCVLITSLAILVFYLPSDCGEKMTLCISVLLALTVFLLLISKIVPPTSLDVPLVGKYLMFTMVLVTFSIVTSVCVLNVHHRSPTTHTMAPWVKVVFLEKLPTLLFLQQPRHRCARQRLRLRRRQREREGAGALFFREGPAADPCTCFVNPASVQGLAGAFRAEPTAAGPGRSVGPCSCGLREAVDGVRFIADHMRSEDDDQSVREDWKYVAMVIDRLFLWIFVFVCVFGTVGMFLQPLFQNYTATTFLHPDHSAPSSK

[7] = target: T2, Neuronal acetylcholine receptor; alpha3/beta4 (Rattus norvegicus); experiment: Antagonist activity at rat alpha3beta4 nAChR expressed in Xenopus laevis oocytes assessed as inhibition of Ach-induced current at 10 uM measured at holding potential of -90 mV by two electrode voltage-clamp assay relative to control; type: cell-based; conditions: Oocyte
[8] = target: T3, Neuronal acetylcholine receptor; alpha4/beta2 (Rattus norvegicus) (UniProt P09483+P12390); experiment: Antagonist activity at rat alpha4beta2 nAChR expressed in Xenopus laevis oocytes assessed as effect on nAChR current at 10 uM measured at holding potential of -90 mV by two electrode voltage-clamp assay; type: cell-based; conditions: Oocyte
[9] = target: T3, Neuronal acetylcholine receptor; alpha4/beta2 (Rattus norvegicus); experiment: Antagonist activity at rat alpha4beta2 nAChR expressed in Xenopus laevis oocytes assessed as inhibition of Ach-induced current at 10 uM measured at holding potential of -90 mV by two electrode voltage-clamp assay relative to control; type: cell-based; conditions: Oocyte

| SMILES | inhibition ([1]; filed as antagonist) | inhibition [2] | inhibition ([2]; filed as antagonist) | also measured |
| --- | --- | --- | --- | --- |
| COc1cc(OC)cc(-c2ccc(C3=NOC4(CCN(Cc5ccccc5)CC4)N3)cc2)c1 | 73% | inactive | – | – |
| c1ccc(CN2CCC3(CC2)NC(c2ccccc2)=NO3)cc1 | 98.2% | – | 70.4% | IC50 [3]: 13.7 µM |
| Brc1ccc(C2=NOC3(CCN(Cc4ccccc4)CC3)N2)cn1 | 90.3% | – | 63.7% | – |
| c1ccc(CN2CCC3(CC2)NC(c2cc4ccccc4cn2)=NO3)nc1 | 80% | 37.9% | – | – |
| Fc1cccc(C2=NOC3(CCN(Cc4ccccc4)CC3)N2)c1 | 83.1% | – | 65.9% | – |
| CC(C)(C)OC(=O)N1CCC2(CC1)NC(c1ccccc1)=NO2 | 73.5% | inactive | – | – |
| c1ccc(CN2CCC3(CC2)NC(c2nccs2)=NO3)nc1 | 80% | 39.3% | – | – |
| Cc1cccc(-c2ccc(C3=NOC4(CCN(Cc5ccccc5)CC4)N3)cc2)c1 | 80.1% | 30% | – | – |
| Cc1cccc(C2=NOC3(CCN(Cc4ccccc4)CC3)N2)c1 | 75.4% | inactive | – | – |
| c1ccc2cc(C3=NOC4(CCN(Cc5ccncc5)CC4)N3)ncc2c1 | 58.2% | inactive | – | – |
| c1ccc(CN2CCC3(CC2)NC(c2n[nH]c4ccccc24)=NO3)cc1 | 69.8% | inactive | – | – |
| CN1CCC2(CC1)NC(c1ccc(Br)nc1)=NO2 | 83.4% | – | 44.1% | – |
| c1ccc(CN2CCC3(CC2)NC(c2cccs2)=NO3)cc1 | 74.9% | inactive | – | – |
| c1ccc(CN2CCC3(CC2)NC(c2ccc(-c4ccccc4)cc2)=NO3)cc1 | 71.4% | inactive | – | – |
| CN1CCC2(CC1)NC(c1ccccc1)=NO2 | 96.7% | – | 90.4% | IC50 [3]: 4.4 µM |
| c1cc(CN2CCC3(CC2)NC(c2nccs2)=NO3)ccn1 | – | inactive | – | inhibition [1]: 18.8% |
| Fc1ccc(CN2CCC3(CC2)NC(C2CC2)=NO3)cc1 | 83.9% | – | 52.8% | – |
| Fc1ccc(C2=NOC3(CCN(Cc4ccccc4)CC3)N2)cc1 | 78.3% | inactive | – | – |
| CN1CCC2(CC1)NC(c1nccs1)=NO2 | 87.4% | – | 69.7% | – |
| COc1cccc(-c2ccc(C3=NOC4(CCN(Cc5ccccc5)CC4)N3)cn2)c1 | 58.2% | inactive | – | – |
| Brc1ccc(C2=NOC3(CCN(Cc4ccccc4)CC3)N2)cc1 | 91.5% | – | 90.8% | IC50 [3]: 6 µM |
| Nc1cccc(-c2ccc(C3=NOC4(CCN(Cc5ccccc5)CC4)N3)cn2)c1 | 87.2% | – | 61.8% | – |
| c1ccc(C2=NOC3(CCN(Cc4ccccn4)CC3)N2)cc1 | 70.2% | inactive | – | – |
| COc1cc(-c2ccc(C3=NOC4(CCN(C)CC4)N3)cc2)ccn1 | 93.4% | – | 86.1% | IC50 [3]: 3.3 µM |
| CCOC(=O)N1CCC2(CC1)NC(c1ccccc1)=NO2 | 75.1% | inactive | – | – |
| FC(F)(F)c1cccc(-c2ccc(C3=NOC4(CCN(Cc5ccccc5)CC4)N3)cc2)c1 | 67% | inactive | – | – |

| SMILES | inhibition ([1]; filed as antagonist) | inhibition [2] | inhibition ([2]; filed as antagonist) | also measured |
| --- | --- | --- | --- | --- |
| COc1ccc(-c2ccc(C3=NOC4(CCN(Cc5ccccc5)CC4)N3)cc2)cc1 | 40.5% | inactive | – | – |
| c1ccc(CN2CCC3(CC2)NC(c2ccc(-c4cccs4)cc2)=NO3)cc1 | 71.1% | inactive | – | – |
| Clc1ccc(C2=NOC3(CCN(Cc4ccccc4)CC3)N2)cc1 | 90.7% | – | 77.4% | – |
| Fc1ccc(-c2ccc(C3=NOC4(CCN(Cc5ccccc5)CC4)N3)cc2)cc1 | 42.4% | inactive | – | – |
| COc1ccc(C2=NOC3(CCN(Cc4ccccc4)CC3)N2)cc1 | 79.6% | inactive | – | – |
| COc1cccc(-c2ccc(C3=NOC4(CCN(Cc5ccccc5)CC4)N3)cc2)c1 | 95.6% | – | 76.9% | – |
| CCOC(=O)N1CCC2(CC1)NC(c1ccc(Br)cc1)=NO2 | 58.1% | inactive | – | – |
| c1ccc(CN2CCC3(CC2)NC(c2ccccn2)=NO3)cc1 | 68.7% | inactive | – | – |
| COc1cccc(-c2ccc(C3=NOC4(CCN(C)CC4)N3)cc2)c1 | 93.2% | – | 81.3% | – |
| Clc1ccc(-c2ccc(C3=NOC4(CCN(Cc5ccccc5)CC4)N3)cc2)cc1 | 52.8% | inactive | – | – |
| c1ccc(CN2CCC3(CC2)NC(c2cc4ccccc4cn2)=NO3)cc1 | 91.1% | – | 76.6% | – |
| CN1CCC2(CC1)NC(c1ccc(Br)cc1)=NO2 | 97.4% | – | 91.8% | Activity [4]: inactive; Ratio IC50 [5]: 6; IC50 [6]: 32 µM; IC50 [3]: 5.4 µM; inhibition [7]: 20%; Activity [8]: inactive; inhibition [9]: 24% |
| Cc1ccc(-c2ccc(C3=NOC4(CCN(Cc5ccccc5)CC4)N3)cc2)cc1 | – | inactive | – | inhibition [1]: 34.9% |
| c1ccc(CN2CCC3(CC2)NC(c2nccs2)=NO3)cc1 | 94.5% | – | 65.1% | – |
| COc1cc(-c2ccc(C3=NOC4(CCN(Cc5ccccc5)CC4)N3)cc2)ccn1 | 89.9% | – | 54.7% | – |
| FC(F)(F)c1ccc(-c2ccc(C3=NOC4(CCN(Cc5ccccc5)CC4)N3)cc2)cc1 | – | inactive | – | inhibition [1]: 36.5% |
| Oc1cccc(-c2ccc(C3=NOC4(CCN(Cc5ccccc5)CC4)N3)cc2)c1 | 80.4% | – | 59% | – |
| c1ccc(CN2CCC3(CC2)NC(c2ccc(-c4ccncc4)cc2)=NO3)cc1 | 75.2% | inactive | – | – |
| COc1ccc(C2=NOC3(CCN(Cc4ccccc4)CC3)N2)c(OC)c1 | 79.1% | inactive | – | – |
| CN1CCC2(CC1)NC(c1ccc(-c3cccc(N)c3)cc1)=NO2 | 78.2% | inactive | – | – |
| c1ccc(CN2CCC3(CC2)NC(c2ccc(-c4cccnc4)cc2)=NO3)cc1 | 81.1% | – | 65% | – |
| CN(C)c1cccc(-c2ccc(C3=NOC4(CCN(Cc5ccccc5)CC4)N3)cc2)c1 | 81.1% | 39.5% | – | – |
| c1ccc(CN2CCC3(CC2)NC(C2CC2)=NO3)cc1 | 83.9% | – | 52.2% | – |
| CC(C)c1cccc(-c2ccc(C3=NOC4(CCN(Cc5ccccc5)CC4)N3)cc2)c1 | – | inactive | – | inhibition [1]: 26.2% |
| Nc1cccc(-c2ccc(C3=NOC4(CCN(Cc5ccccc5)CC4)N3)cc2)c1 | 93.5% | – | 60.1% | – |
| Cc1ccccc1-c1ccc(C2=NOC3(CCN(Cc4ccccc4)CC3)N2)cc1 | 72% | inactive | – | – |
